The results in this text go back to article PMC12441834, “Highly Potent and Subtype-Selective Sperm-Specific Potassium Channel SLO3 Inhibitors Display High Tissue Exposure in the Murine Female Reproductive Tract” (ACS Pharmacology & Translational Science, 2025).

For one test, the target named is T1, hSLO1 (Homo sapiens, UniProt Q12791).
T1 construct: expressed in transfected cells; host or cells: HEK293
Kind of test: SLO1 inhibition in HEK cells. It is filed as cell-based. The procedure:
HEK293 cells were transfected with the bicistronic vector pBUD-CE4.1 containing the genes of interest and a gene conferring antibiotic resistance. Cells were exposed to gradients of selection antibiotics, and optimal growth conditions for the stable lines were as follows: SLO3 and γ2 (SLO3-γ2) supplemented with 700 μg/mL Zeocin (Invitrogen); human SLO1 and β1 (SLO1-β1) with 1 mg/mL G418 (Sigma) and 3 μg/mL puromycin (Corning, Thermo Fisher); and human SLO1 and β4 (SLO1-β4) with 250 μg/mL Zeocin and 3 μg/mL puromycin. All cell lines were grown in Dulbecco’s Modified Eagle Medium (Gibco, Thermo Fisher) supplemented with 10% fetal bovine serum, 1% penicillin–streptomycin (Millipore Sigma), and selection antibiotics. To generate cells expressing SLO1 and γ2, stable SLO1-expressing HEK293 cells were transiently transfected with expression vectors for γ2 and green fluorescent protein (GFP) in the presence of lipofectamine (Invitrogen) for 5 h.
The cells were then washed and incubated in supplemented Dulbecco’s Modified Eagle Medium for 48 h before use. Patch-clamp electrophysiology was performed only on cells expressing GFP.
Currents in HEK293 cells were measured in the whole-cell patch-clamp configuration with an Axopatch 200B amplifier, digitized with a Digidata 1440A, and interfaced with Clampex 10.6.0.13 (Molecular Devices). […] An isolated cell was located on an Axiovert 200 microscope (Zeiss), and a gigaohm seal was formed with a borosilicate pipette with resistance between 3 and 6 MΩ and filled with internal solution (140 mM KMeSO3, 10 mM HEPES, 10 mM MES, 1 mM EGTA, pH 7). The seal was then broken by applying a negative pressure. Cells were kept at a holding potential of −60 mV for 50 ms, tested with a stepped voltage protocol from −80 to +150 mV in 10 mV increments for 100 ms, and then dropped to −40 mV for 50 ms with 2.5 s between sweeps. This protocol was used to record currents present with increasing concentration of our compound of interest or 3 μL/mL vehicle (DMSO) in the bath solution. Individual cells were tested with between 1 and 5 concentrations of the compound of interest or until the patch was lost. Currents were allowed to stabilize before the initial recording and after the perfusion solution was changed before recording.

Another test addresses T2, hSLO2.1 (Homo sapiens, UniProt Q6UVM3).
T2 construct: expressed in transfected cells; host or cells: HEK
T2 sequence (Q6UVM3 1-1135): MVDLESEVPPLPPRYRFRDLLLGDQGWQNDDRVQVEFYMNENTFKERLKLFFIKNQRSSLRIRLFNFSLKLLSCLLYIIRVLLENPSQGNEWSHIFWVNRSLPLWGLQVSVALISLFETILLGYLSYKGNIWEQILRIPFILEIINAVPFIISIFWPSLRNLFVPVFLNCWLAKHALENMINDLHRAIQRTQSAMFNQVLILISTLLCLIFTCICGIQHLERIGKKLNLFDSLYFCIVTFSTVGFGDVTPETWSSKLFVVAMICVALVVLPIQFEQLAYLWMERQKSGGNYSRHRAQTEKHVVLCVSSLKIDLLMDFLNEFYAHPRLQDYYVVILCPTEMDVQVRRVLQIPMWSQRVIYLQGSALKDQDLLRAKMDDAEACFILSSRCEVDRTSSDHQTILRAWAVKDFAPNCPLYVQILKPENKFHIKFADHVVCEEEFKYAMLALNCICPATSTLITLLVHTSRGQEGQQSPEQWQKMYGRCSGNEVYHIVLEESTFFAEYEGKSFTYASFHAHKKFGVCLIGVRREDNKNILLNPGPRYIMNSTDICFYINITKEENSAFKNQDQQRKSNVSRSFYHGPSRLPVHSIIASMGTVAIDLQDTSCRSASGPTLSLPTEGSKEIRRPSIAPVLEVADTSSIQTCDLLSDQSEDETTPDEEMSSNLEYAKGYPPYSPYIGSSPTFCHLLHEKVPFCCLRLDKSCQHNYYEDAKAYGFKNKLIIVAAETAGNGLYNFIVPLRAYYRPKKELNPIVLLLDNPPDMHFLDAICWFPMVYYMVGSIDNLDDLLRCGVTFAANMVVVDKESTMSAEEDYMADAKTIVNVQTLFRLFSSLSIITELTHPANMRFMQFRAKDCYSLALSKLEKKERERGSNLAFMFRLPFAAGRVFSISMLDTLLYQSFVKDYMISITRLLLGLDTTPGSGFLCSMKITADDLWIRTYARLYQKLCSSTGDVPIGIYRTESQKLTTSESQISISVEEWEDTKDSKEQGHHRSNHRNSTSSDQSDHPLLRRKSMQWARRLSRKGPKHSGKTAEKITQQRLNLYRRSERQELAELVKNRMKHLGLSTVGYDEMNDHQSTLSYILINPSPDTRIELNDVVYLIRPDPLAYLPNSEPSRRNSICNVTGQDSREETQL
Kind of test: SLO2.1 inhibition in HEK cells. It counts as cell-based. The following applies: HEK293; read-out: HEK hSLO2.1 % inhib. 10 μM.

The target in the next test is Adenosine A3 (Homo sapiens, UniProt P0DMS8). Kind of test: LeadProfilingScreen radioligand binding.
A further test has as its target Adrenergic α1B (Homo sapiens, UniProt P35368). In words: LeadProfilingScreen radioligand binding.
The next test deals with GABAA, Muscimol, Central. In words: LeadProfilingScreen radioligand binding. More on the design: species or system rat.
A further test addresses Glucocorticoid (Homo sapiens, UniProt P04150). Kind of test: LeadProfilingScreen radioligand binding.
In test [1] the target is Leukotriene, Cysteinyl CysLT1 (Homo sapiens, UniProt Q9Y271). In words: LeadProfilingScreen radioligand binding.
Another test concerns the target Muscarinic M1 (Homo sapiens, UniProt P11229). Kind of test: LeadProfilingScreen radioligand binding.
The next test has as its target Neuropeptide Y Y1 (Homo sapiens, UniProt P25929). In words: LeadProfilingScreen radioligand binding.
Another test addresses Opiate μ (OP3, MOP) (Homo sapiens, UniProt P35372). In words: LeadProfilingScreen radioligand binding.
The target in test [2] is Transporter, Norepinephrine (NET) (Homo sapiens, UniProt P23975). Kind of test: LeadProfilingScreen radioligand binding.
Sequence of Transporter, Norepinephrine (NET) (P23975 whole entry): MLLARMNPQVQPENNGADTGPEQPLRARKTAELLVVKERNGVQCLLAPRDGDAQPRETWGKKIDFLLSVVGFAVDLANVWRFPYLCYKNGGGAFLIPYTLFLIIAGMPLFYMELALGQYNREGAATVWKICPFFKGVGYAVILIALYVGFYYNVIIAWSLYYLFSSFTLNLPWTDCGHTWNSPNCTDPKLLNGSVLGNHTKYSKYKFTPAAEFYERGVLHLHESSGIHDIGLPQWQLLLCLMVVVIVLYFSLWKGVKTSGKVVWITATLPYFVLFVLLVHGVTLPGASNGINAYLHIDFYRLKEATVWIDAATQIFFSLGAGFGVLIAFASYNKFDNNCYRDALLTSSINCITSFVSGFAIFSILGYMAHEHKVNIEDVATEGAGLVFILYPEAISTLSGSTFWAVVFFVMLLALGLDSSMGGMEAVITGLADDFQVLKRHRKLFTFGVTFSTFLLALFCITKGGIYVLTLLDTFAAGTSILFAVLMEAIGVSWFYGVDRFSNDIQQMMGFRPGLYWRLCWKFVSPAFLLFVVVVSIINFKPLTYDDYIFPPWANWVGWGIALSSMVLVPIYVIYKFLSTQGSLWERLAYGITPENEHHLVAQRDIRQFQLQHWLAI

T1 sequence (Q12791 whole entry): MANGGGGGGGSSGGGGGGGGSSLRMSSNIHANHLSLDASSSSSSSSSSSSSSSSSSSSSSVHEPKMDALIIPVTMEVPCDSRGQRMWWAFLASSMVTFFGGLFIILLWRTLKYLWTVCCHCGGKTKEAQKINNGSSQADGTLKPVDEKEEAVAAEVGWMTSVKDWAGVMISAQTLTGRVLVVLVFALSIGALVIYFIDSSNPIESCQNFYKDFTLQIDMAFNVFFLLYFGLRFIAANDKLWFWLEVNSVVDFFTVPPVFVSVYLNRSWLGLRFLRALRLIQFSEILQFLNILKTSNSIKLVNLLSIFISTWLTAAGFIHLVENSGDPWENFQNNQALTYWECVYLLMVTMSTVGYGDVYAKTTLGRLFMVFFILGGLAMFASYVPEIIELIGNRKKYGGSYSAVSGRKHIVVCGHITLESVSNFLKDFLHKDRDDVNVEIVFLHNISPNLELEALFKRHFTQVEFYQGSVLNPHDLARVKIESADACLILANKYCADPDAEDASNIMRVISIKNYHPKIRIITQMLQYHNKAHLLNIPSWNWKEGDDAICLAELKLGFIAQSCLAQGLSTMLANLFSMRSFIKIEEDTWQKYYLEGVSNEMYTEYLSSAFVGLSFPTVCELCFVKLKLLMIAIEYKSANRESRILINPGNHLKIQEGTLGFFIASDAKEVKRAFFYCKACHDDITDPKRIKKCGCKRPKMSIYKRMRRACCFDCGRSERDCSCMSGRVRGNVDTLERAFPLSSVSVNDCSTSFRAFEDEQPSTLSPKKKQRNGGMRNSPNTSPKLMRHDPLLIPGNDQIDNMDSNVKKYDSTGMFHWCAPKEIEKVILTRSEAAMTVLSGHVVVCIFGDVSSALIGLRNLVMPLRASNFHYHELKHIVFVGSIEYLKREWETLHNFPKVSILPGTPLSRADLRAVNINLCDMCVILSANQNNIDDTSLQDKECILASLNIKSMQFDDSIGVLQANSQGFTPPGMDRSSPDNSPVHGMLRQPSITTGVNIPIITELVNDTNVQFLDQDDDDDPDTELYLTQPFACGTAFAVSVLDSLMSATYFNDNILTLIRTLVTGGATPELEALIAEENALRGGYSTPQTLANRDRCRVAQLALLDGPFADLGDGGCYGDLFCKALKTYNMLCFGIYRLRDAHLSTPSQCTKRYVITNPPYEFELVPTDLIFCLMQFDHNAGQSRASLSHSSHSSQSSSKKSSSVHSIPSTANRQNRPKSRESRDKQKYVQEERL
Sequence of Glucocorticoid (P04150 whole entry): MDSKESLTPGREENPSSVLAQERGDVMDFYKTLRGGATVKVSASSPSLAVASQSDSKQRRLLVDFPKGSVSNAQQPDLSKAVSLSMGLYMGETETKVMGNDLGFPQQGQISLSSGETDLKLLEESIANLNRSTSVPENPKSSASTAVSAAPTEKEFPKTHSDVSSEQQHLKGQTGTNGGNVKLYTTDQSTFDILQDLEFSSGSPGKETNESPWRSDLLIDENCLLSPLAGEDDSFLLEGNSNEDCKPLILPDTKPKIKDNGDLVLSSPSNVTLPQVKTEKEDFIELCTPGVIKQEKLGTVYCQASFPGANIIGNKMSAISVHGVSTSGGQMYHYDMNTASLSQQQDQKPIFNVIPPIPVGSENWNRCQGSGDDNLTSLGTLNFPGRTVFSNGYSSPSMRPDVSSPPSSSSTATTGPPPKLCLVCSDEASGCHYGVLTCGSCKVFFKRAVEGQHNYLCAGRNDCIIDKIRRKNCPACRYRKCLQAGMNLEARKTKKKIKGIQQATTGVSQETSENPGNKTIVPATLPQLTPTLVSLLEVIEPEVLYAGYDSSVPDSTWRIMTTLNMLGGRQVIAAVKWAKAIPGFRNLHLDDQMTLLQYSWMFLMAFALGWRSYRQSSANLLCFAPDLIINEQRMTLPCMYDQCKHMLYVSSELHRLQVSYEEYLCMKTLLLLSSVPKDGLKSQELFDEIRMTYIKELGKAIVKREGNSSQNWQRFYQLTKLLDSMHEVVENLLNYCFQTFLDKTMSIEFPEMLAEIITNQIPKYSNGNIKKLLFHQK
Sequence of Adrenergic α1B (P35368 whole entry): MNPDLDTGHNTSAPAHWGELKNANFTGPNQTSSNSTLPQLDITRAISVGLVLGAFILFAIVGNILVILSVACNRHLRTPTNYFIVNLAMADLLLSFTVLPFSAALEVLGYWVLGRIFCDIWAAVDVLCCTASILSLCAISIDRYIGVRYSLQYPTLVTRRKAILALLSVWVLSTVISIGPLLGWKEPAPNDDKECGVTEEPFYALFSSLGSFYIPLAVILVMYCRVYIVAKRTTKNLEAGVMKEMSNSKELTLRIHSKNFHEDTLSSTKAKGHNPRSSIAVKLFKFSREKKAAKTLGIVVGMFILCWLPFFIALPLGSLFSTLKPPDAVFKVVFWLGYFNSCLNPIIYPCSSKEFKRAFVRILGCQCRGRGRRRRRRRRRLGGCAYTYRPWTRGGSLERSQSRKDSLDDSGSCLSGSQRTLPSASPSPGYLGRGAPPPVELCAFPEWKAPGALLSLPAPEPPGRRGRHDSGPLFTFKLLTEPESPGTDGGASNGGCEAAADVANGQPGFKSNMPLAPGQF
Sequence of Muscarinic M1 (P11229 whole entry): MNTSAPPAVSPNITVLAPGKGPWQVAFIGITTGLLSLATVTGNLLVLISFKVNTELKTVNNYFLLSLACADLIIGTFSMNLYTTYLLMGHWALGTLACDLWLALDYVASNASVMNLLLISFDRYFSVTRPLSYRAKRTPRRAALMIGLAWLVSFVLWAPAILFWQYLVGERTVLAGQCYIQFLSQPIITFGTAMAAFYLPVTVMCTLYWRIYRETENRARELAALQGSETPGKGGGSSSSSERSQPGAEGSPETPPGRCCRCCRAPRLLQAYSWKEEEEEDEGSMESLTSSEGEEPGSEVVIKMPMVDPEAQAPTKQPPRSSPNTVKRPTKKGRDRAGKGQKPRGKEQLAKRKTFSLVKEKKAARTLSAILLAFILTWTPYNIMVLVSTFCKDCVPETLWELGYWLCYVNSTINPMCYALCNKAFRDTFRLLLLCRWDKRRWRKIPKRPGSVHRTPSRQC
Sequence of Adenosine A3 (P0DMS8 whole entry): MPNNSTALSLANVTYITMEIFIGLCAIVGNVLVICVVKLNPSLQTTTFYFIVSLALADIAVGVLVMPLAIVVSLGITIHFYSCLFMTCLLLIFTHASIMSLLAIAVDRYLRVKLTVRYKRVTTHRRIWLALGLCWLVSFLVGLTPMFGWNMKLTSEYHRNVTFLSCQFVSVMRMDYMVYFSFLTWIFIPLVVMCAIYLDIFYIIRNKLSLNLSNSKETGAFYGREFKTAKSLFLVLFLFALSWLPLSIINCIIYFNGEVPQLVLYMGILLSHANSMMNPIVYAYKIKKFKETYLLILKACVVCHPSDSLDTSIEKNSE
Sequence of Neuropeptide Y Y1 (P25929 whole entry): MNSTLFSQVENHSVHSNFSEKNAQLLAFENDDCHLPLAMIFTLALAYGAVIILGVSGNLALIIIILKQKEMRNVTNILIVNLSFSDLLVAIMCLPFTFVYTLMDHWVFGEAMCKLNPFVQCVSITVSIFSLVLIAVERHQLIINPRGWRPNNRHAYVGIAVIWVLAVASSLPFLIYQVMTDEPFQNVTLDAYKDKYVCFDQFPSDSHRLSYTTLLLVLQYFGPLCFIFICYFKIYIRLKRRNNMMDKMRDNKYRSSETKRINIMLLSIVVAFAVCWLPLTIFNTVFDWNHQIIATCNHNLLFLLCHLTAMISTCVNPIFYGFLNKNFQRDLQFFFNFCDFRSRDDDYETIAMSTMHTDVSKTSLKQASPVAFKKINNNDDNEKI
Sequence of Opiate μ (OP3, MOP) (P35372 whole entry): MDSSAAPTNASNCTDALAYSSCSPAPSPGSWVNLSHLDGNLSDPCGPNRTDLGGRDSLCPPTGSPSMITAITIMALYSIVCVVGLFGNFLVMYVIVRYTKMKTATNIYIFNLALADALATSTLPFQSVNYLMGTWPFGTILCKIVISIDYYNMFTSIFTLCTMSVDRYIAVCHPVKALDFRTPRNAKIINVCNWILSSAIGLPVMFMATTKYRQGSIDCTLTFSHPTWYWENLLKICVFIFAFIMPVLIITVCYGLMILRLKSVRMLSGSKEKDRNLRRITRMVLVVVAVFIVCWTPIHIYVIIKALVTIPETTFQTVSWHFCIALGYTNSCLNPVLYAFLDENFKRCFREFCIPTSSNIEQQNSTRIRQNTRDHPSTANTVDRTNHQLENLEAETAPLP

For the compound `Cc1cc(Cl)cc2sc(OC3CCN(C(=O)CCCS(=O)(=O)c4cccc(Br)c4)CC3F)nc12` (stereo not shown) [VU6045330], at hSLO1, the IC50 was 109 µM. Besides, the “SLO1 selectivity (fold selective for SLO3)” value on hSLO1 (SLO1 IC50 / hSLO3 IC50) is on record as 802 fold. Further, at hSLO2.1, the inhibition at 10 µM worked out at 22%.
As for `Cc1cc(Cl)cc2sc(O[C@H]3CCN(C(=O)CCCS(=O)(=O)c4cccc(Br)c4)C[C@H]3F)nc12` [VU6047606], on hSLO1 (HEK293, read-out: HEK hSLO1 % inhib. at 30 μM), the inhibition at 30 µM came out at 10%. The inhibition at 10 µM on hSLO2.1 worked out at 4%; on Adenosine A3 it was 43%; at Adrenergic α1B, 12%; on Glucocorticoid it was 18%; in test [1] it was 2%; at Muscarinic M1 it was 6%. In addition, the inhibition at 10 µM on Neuropeptide Y Y1 was -16%; at Opiate μ (OP3, MOP), 22%; in test [2], 44%. The “% inhibition at 10 μM” value in the test on GABAA, Muscimol, Central is 1%.
On to `O=C(c1ccc(OCc2ccc(OC(F)(F)F)cc2)cc1)N1CCN(c2ccc(C(F)(F)F)cn2)CC1` [VU6032735], for which, on hSLO1 (30 μM), the “HEK hSLO1 % inhib. at 30 μM” value is “No inhibition”. Moreover, the inhibition at 10 µM was 22% on hSLO2.1; 9% at Adenosine A3; -5% at Adrenergic α1B; 10% on Glucocorticoid; -3% in [1]; -8% at Muscarinic M1. Besides, the inhibition at 10 µM on Neuropeptide Y Y1 is -1%; at Opiate μ (OP3, MOP), 11%; in test [2], 30%. Moreover, in the test with GABAA, Muscimol, Central, the “% inhibition at 10 μM” value is 0%.
